The target in test [1] is full-length MALT1 protein (Strep-MALT1(1-824)-His) (Homo sapiens (Human), UniProt Q9UDY8). As to the kind of experiment: MALT1 Biochemical Protease Assay (Ac-LRSR-AMC substrate). Conditions: 10 nM FL MALT1, 200 μM Ac-LRSR-AMC, 4 h at RT; read-out: MALT1_Biochemical activity (Ac-LRSR-amc) IC50. The method in brief: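 Full-length MALT1 pre-incubated with compounds (30 μM to 0.5 nM, 11 threefold steps) for 50 min at RT. After Ac-LRSR-AMC was added, the reaction ran 4 h at RT and AMC fluorescence was read. IC50 and Hill slope from curve fitting against no-enzyme and no-compound controls.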

Test [2] has as its system IL6 secretion by TMD8 ABC-DLBCL cells. As to the kind of experiment: Human IL6 Mesoscale assay (TMD-8). Format: cell-based. As to conditions: Homo sapiens, TMD8; TMD-8 cells, 24 h. Put shortly: (§1)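 Compounds tested from 15 μM to 58.6 nM (twofold, 9 concentrations) on 100,000 cells per well over 24 h at 37° C, without beta-mercaptoethanol. Secreted cytokine in supernatant detected by MSD electrochemiluminescence; scaling used DMSO as maximum and RN486 as full inhibition.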

For the next test, the system named is OCI-Ly3 cells. The experiment in a line: 4-day proliferation assay, OCI-Ly3. The format is cell-based, human. Conditions: Homo sapiens, 96 h, 4 days incubation, CellTiterGLO, read-out: Anti-proliferation: OCI-LY-3 IC50. The method in brief: (§2)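 TMD8 and OCI-Ly3 cells were seeded at 10,000 per well and grown 4 days at 37° C, 5% CO2 without beta-mercaptoethanol. Viability was read by CellTiter-Glo luminescence. IC50 and Hill slope were fitted relative to the low control median.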

The next test relates to TMD8 cells. As to the kind of experiment: 4-day proliferation assay, TMD8. Conditions: Homo sapiens, 96 h, 4 days incubation, CellTiterGLO, read-out: Anti-proliferation: TMD-8 IC50. Format: cell-based. Put shortly: as §2
A general note: ATP-based viability assays read luminescence as a measure of living cells.

Test [3] deals with IL10 secretion by TMD8 ABC-DLBCL cells. As to the kind of experiment: Human IL10 Mesoscale assay (TMD-8). The format is cell-based. Conditions: Homo sapiens, TMD8; TMD-8 cells, 24 h. Put shortly:
as §1

The values that follow come from patent US10954214B2 (Janssen Pharmaceutica NV, priority 2016, dated 2021).

Sequence of full-length MALT1 protein (Strep-MALT1(1-824)-His) (Q9UDY8 whole entry): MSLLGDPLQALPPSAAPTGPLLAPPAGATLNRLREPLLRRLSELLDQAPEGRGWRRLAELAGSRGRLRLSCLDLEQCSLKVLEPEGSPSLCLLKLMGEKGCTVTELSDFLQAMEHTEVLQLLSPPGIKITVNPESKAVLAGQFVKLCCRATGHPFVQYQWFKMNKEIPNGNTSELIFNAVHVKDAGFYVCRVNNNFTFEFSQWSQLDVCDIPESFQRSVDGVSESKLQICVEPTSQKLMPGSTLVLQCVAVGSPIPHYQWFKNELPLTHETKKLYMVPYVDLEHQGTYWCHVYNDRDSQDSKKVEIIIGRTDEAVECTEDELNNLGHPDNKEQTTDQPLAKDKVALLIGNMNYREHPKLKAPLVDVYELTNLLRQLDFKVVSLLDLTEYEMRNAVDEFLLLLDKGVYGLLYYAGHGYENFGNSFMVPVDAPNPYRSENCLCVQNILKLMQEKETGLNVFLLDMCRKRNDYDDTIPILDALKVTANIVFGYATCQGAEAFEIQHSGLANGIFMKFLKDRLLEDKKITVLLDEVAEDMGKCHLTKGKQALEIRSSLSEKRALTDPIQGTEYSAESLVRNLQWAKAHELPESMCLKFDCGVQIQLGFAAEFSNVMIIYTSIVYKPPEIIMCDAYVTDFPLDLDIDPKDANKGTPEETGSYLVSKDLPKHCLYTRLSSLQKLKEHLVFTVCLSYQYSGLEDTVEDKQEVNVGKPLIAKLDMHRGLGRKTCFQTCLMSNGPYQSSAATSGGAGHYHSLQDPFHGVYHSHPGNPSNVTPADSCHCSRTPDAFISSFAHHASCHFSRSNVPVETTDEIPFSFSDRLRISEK

As to `N#Cc1cc(NC(=O)c2cnn(-c3ncnc4sccc34)c2C(F)(F)F)cnc1-n1nccn1` [Cpd 142, N-(5-cyano-6-(2H-1,2,3-triazol-2-yl)pyridin-3-yl)-1-(thieno[2,3-d]pyrimidin-4-yl)-5-(trifluoromethyl)-1H-pyrazole-4-carboxamide], the IC50 was 26 nM in test [1]; 107 nM in test [2]; 380 nM in the test with OCI-Ly3 cells; 832 nM with TMD8 cells; 17 nM in test [3].

On to `N#Cc1cc(NC(=O)c2cnn(-c3nccc4ccsc34)c2C(F)(F)F)cnc1-n1nccn1` [Cpd 143, N-(5-cyano-6-(2H-1,2,3-triazol-2-yl)pyridin-3-yl)-1-(thieno[2,3-c]pyridin-7-yl)-5-(trifluoromethyl)-1H-pyrazole-4-carboxamide], for which the IC50 in test [1] worked out at 26 nM; in test [2], 98 nM; in the test on OCI-Ly3 cells, 423 nM; in the test with TMD8 cells, 9550 nM; in test [3], 56 nM.

Consider `NC(=O)c1cnn(-c2ncc(NC(=O)c3cnn(-c4cccc5ncccc45)c3C(F)(F)F)cc2Cl)n1` [Cpd 144, 2-(3-chloro-5-(1-(quinolin-5-yl)-5-(trifluoromethyl)-1H-pyrazole-4-carboxamido)pyridin-2-yl)-2H-1,2,3-triazole-4-carboxamide], for which the IC50 in test [1] is 28 nM; in test [2] it was 52 nM; in the test on OCI-Ly3 cells it was 482 nM; with TMD8 cells, 2570 nM; in test [3] it was 49 nM.

Regarding `N#Cc1cc(NC(=O)c2cnn(-c3cncc4ncccc34)c2C(F)(F)F)cnc1-n1nccn1` [Cpd 145, N-(5-cyano-6-(2H-1,2,3-triazol-2-yl)pyridin-3-yl)-1-(1,7-naphthyridin-5-yl)-5-(trifluoromethyl)-1H-pyrazole-4-carboxamide], the IC50 worked out at 28 nM in test [1]; 126 nM in test [2]; 626 nM with OCI-Ly3 cells; 4570 nM in the test on TMD8 cells; 47 nM in test [3].

Turning to `O=C(Nc1cnc(-n2nccn2)c(C(F)(F)F)c1)c1cnn(-c2cccc3ncccc23)c1C(F)(F)F` [Cpd 146, N-(6-(2H-1,2,3-triazol-2-yl)-5-(trifluoromethyl)pyridin-3-yl)-1-(quinolin-5-yl)-5-(trifluoromethyl)-1H-pyrazole-4-carboxamide], the IC50 in test [1] worked out at 32 nM; in test [2] it was 331 nM; in the test on OCI-Ly3 cells, 337 nM; in the test on TMD8 cells it was 1020 nM; in test [3], 132 nM.

On to `O=C(Nc1cnc(-n2nccn2)c(Cl)c1)c1cnn(-c2nccn3cccc23)c1C(F)(F)F` [Cpd 147, N-(5-chloro-6-(2H-1,2,3-triazol-2-yl)pyridin-3-yl)-1-(pyrrolo[1,2-a]pyrazin-1-yl)-5-(trifluoromethyl)-1H-pyrazole-4-carboxamide], for which the IC50 in test [1] came out at 30 nM; in test [2], 200 nM; with OCI-Ly3 cells, 966 nM; with TMD8 cells it was 11500 nM; in test [3], 85 nM.

In the case of `N#Cc1cc(NC(=O)c2cnn(-c3nccn4cccc34)c2C(F)(F)F)cnc1-n1nccn1` [Cpd 148, N-(5-cyano-6-(2H-1,2,3-triazol-2-yl)pyridin-3-yl)-1-(pyrrolo[1,2-a]pyrazin-1-yl)-5-(trifluoromethyl)-1H-pyrazole-4-carboxamide], the IC50 in test [1] was 32 nM; in test [2], 105 nM; in the test on OCI-Ly3 cells, 692 nM; in the test on TMD8 cells, 3800 nM; in test [3], 112 nM.

As for `Cn1nnc(-c2ncc(NC(=O)c3cnn(-c4cccc5ncccc45)c3C(F)(F)F)cc2C#N)n1` [Cpd 149, N-(5-cyano-6-(2-methyl-2H-tetrazol-5-yl)pyridin-3-yl)-1-(quinolin-5-yl)-5-(trifluoromethyl)-1H-pyrazole-4-carboxamide], the IC50 in test [1] worked out at 29 nM; in test [2], 912 nM; in the test on OCI-Ly3 cells it was 759 nM; with TMD8 cells, 4360 nM; in test [3], 2630 nM.
